# From patent publication EP0319986B1, “Anti-plasmin depressant” (NIPPON SHINYAKU COMPANY, LIMITED, priority 1987, dated 1989)
# Structures can show the parent of a compound that is named as a salt.
# Test system: not listed separately
# Experiment: Test on acute toxicity
# Conditions: mouse, in vivo, ip
# Method: Four (4) ddY strain male mice of 6 week age were used for each group of the test sample.
# In intravenous administration, each sample was dissolved in 0.9% physiological saline and the solution was administered through the tail vein. In intraperitoneal administration, each sample was suspended in 0.5% CMC-physiological saline and 0.1 ml of the suspension per […] of mouse body weight was intraperitoneally administered. In oral administration, each sample was suspended in 0.5% CMC-physiological saline and 0.2 ml of the suspension per […] administered.
# Observation was made immediately after the administration. After observation for 1 week after the administration, the mice was sacrificed with chloroform and subjected to autopsy.
row,Compound,LD50 at 168 h [mg/kg]
1,"OC[C@H]1NC[C@H](O)[C@@H](O)[C@@H]1O [Compound No. 1, Moranoline]",5000

# Same assay, conditions: mouse, in vivo, iv
row,Compound,LD50 at 168 h [mg/kg]
1,"OC[C@H]1NC[C@H](O)[C@@H](O)[C@@H]1O [Compound No. 1, Moranoline]",3240

# Same assay, conditions: mouse, in vivo, po
row,Compound,LD50 at 168 h [mg/kg]
1,"OC[C@H]1NC[C@H](O)[C@@H](O)[C@@H]1O [Compound No. 1, Moranoline]",7500

# Test system: CPAE (calf pulmonary artery endothelia)
# Experiment: Thrombolytic test in vitro: CPAE culture supernatant on fibrin plate, lysis circle
# Assay type: cell-based
# Conditions: 5 µl of 0.2 mg/ml compound solution per well of CPAE cells, 72 hours; 5 µl supernatant on fibrin plate with plasminogen, 4 hours; 4 mm or more = thrombolytic ability induced
# Method: Thrombolytic activity-inducing ability in the established vascular endothelial cell culture system was examined using CPAE (calf pulmonary artery endothelia).
# […] cells were purchased from Dainippon Pharmaceutical Co., Ltd., Department of Laboratory Products. CPAE cells were subcultured in 10% FCS-Eagle MEM medium charged in a culture flask of 25 cm^2. From the cell suspension fractionated upon subculture, 0.1 ml was transferred into a test tube with a sterilized pipette. Then, the cell suspension was diluted to 10 fold with 0.9 ml of Trypan Blue solution and a cell count was counted with a cell counter. After diluting with 10% FCS-Eagle MEM medium so as to have a cell count of 2 x 10^5 cells/ml, 100 µl each/well, namely, 2 x 10^4 cells/well, of the dilution was dispensed in a 96 well microtiter plate (manufactured by Corning) with a micropipette. The plate was incubated at 37°C in 5% CO2.
# The compound used according to the present invention was dissolved in medium in 0.2 mg/ml; the compound that was insoluble in the medium was dissolved in less than 1% of DMSO and the resulting solution was aseptically filtered through a filter; 5 µl of the solution was added to the well with a sterilized micropipette 24 hours after onset of the incubation. After culturing at 37°C for 72 hours in 5% CO2, the collected culture supernatant was provided for measurement.
# The measurement was performed as follows. Plasminogen, 5 µl, was charged in a well of fibrin plate (manufactured by Kitazato institute), which was allowed to stand until diffusion was completed. After diffusion, 5 µl of the supernatant was charged and then put in a carbon dioxide gas incubator of 37°C. Four hours after, evaluation was made by formation of a transparent lysis circle by fibrinolysis.
# In the case of forming a circle of 4 mm or more due to fibrinolysis, it was judged that thrombolytic ability of CPAE cells was induced.
# After the fibrinolytic activity was checked over, the well was fixed with 2.5% of glutaraldehyde in a final concentration. Then, the solution was discarded and the system was washed with PBS. After washing, moisture was removed. After staining with 100 µl of 0.1% crystal violet and allowing stand for 2 to 3 minutes, the system was washed with running water. After an excess of the staining solution was washed out, moisture was removed and the dye bound to the cells was eluted by 100 µl of methanol. Using multiscanning (Titertech), measurements were performed at a wavelength of 580 nm in accordance with the ABS method and the matrix method to confirm that the cells were not injured.
row,Compound,Diameter (mm) of the circle due to fibrinolysis [mm]
1,"CCCCN1C[C@H](O)[C@@H](O)[C@H](O)[C@H]1CO [Compound No. 2a, N-(n-Butyl)moranoline]",7.5
2,"CCCCCCN1C[C@H](O)[C@@H](O)[C@H](O)[C@H]1CO [Compound No. 8, N-Hexylmoranoline tosylate]",6.3
3,"CCCCCCCCC(O)CN1C[C@H](O)[C@@H](O)[C@H](O)[C@H]1CO (stereo partly shown) [Compound No. 10, N-(2-Hydroxydecyl)moranoline tosylate]",4.5
4,"OC[C@@H]1[C@@H](O)[C@H](O)[C@@H](O)CN1CCCc1ccccc1 [Compound No. 12, N-(3-Phenylpropyl)moranoline tosylate]",5.9
5,"OC[C@@H]1[C@@H](O)[C@H](O)[C@@H](O)CN1CC=Cc1ccccc1 [Compound No. 14, N-Cinnamylmoranoline hydrochloride]",5.9
6,"OC[C@@H]1[C@@H](O)[C@H](O)[C@@H](O)CN1CCCCc1ccccc1 [Compound No. 15, N-4-Phenylbutylmoranoline tosylate]",6.3
7,"OC[C@@H]1[C@@H](O)[C@H](O)[C@@H](O)CN1CCCOc1ccccc1 [Compound No. 17, N-(3-Phenoxypropyl)moranoline tosylate]",7.5
8,"OC[C@@H]1[C@@H](O)[C@H](O)[C@@H](O)CN1CCCCCc1ccccc1 [Compound No. 18, N-5-(Phenylpentyl)moranoline tosylate]",6.8
9,"OC[C@@H]1[C@@H](O)[C@H](O)[C@@H](O)CN1CCC1CCCC1 [Compound No. 19, N-(2-Cyclopentylethyl)moranoline tosylate]",5.8
10,"COCCOc1cccc(C(C)=CCN2C[C@H](O)[C@@H](O)[C@H](O)[C@H]2CO)c1 [Compound No. 20, N-[3-(3-Methoxyethoxyphenyl)-2-butenyl]moranoline]",8.0
11,"C[N+]1(C)C[C@H](O)[C@@H](O)[C@H](O)[C@H]1CO [Compound No. 21, N,N-Dimethylmoranoline ammonium iodide]",5.6
12,"CCN1C[C@H](O)[C@@H](O)[C@H](O)[C@H]1CO [Compound No. 22, N-Ethylmoranoline]",6.5
13,"OCC1C(O)C(O)C(O)CN1CC=Cc1ccccc1 (stereo not shown) [Compound No. 23, N-Cinnamylmoranoline]",8.4
14,"CC(C)=CCC/C(C)=C/CN1C[C@H](O)[C@@H](O)[C@H](O)[C@H]1CO [Compound No. 24, N-Geranylmoranoline tosylate]",7.6
15,"OC[C@@H]1[C@@H](O)[C@H](O)[C@@H](O)CN1CC(O)COc1ccccc1 (stereo partly shown) [Compound No. 25, N-(2-Hydroxy-3-phenoxypropyl)moranoline tosylate]",4.1
16,"CC(C)=CCCC(C)=CCCC(C)=CCN1CC(O)C(O)C(O)C1CO (stereo not shown) [Compound No. 26, N-Farnesylmoranoline tosylate]",5.7
17,"CNC(=O)CCCCCCCCCCN1C[C@H](O)[C@@H](O)[C@H](O)[C@H]1CO [Compound No. 27, N-10-(N-Methylcarbamoyl)decylmoranoline]",8.5
18,"OC[C@@H]1[C@@H](O)[C@H](O)[C@@H](O)CN1CCC=Cc1ccccc1 [Compound No. 28, N-(4-Phenyl-3-butenyl)moranoline tosylate]",8.3
19,"CC(=Cc1ccccc1)CN1C[C@H](O)[C@@H](O)[C@H](O)[C@H]1CO [Compound No. 29, N-(3-Phenyl-2-methyl-2-propenyl)moranoline]",7.1
20,"OC[C@@H]1[C@@H](O)[C@H](O)[C@@H](O)CN1CCCOc1ccccc1Cl [Compound No. 30, N-(3-o-Chlorophenoxypropyl)moranoline]",7.6
21,"CC(=CCN1C[C@H](O)[C@@H](O)[C@H](O)[C@H]1CO)c1ccc(Br)cc1 [Compound No. 31, N-(γ-Methyl-4-bromocinnamyl)moranoline]",7.9
22,"Cc1ccc(CCCCN2C[C@H](O)[C@@H](O)[C@H](O)[C@H]2CO)cc1F [Compound No. 32, N-[4-(3-Fluoro-4-methylphenyl)butyl]moranoline]",7.5
23,"CCOc1ccc(C=CCN2CC(O)C(O)C(O)C2CO)cc1 (stereo not shown) [Compound No. 33, N-(p-Ethoxycinnamyl)moranoline]",7.8
24,"CC(C)Oc1ccc(C=CCN2CC(O)C(O)C(O)C2CO)cc1 (stereo not shown) [Compound No. 34, N-(p-Isopropoxycinnamyl)moranoline]",7.6
25,"CC(=CCN1C[C@H](O)[C@@H](O)[C@H](O)[C@H]1CO)c1cccc(C)c1 [Compound No. 35, N-(γ-Methyl-m-methylcimnnamyl)moranoline]",7.8
26,"COc1cccc(C(C)=CCCN2C[C@H](O)[C@@H](O)[C@H](O)[C@H]2CO)c1 [Compound No. 36, N-(4-m-Methoxyphenyl-3-pentenyl)moranoline]",7.6
27,"CCOC(=O)c1ccc(OCCN2C[C@H](O)[C@@H](O)[C@H](O)[C@H]2CO)cc1 [Compound No. 37, N-(p-Ethoxycarbonylphenoxyethyl)moranoline]",6.9
28,"O[C@H]1[C@H](O)[C@@H](O)CN2CC[C@H](O)[C@H]12 [Compound No. 38, Castanospermine]",6.9
29,N-Isoprenylmoranoline [Compound No. 9],8.2

# Test system: α2-plasmin inhibitor (α2-PI)
# Experiment: α2-PI activity in culture medium of HepG2 cells (plasmin / S-2251 chromogenic substrate)
# Assay type: cell-based, human
# Conditions: 200 µg/ml of compound, serum-free medium, 3 to 4 days, culture without test compound = 100%, n=3
# Method: It is known that human hepatic cancer-derived HepG2 cells synthesize and secrete α2-plasmin inhibitor (α2-PI). The HepG2 cells, 2 x 10^6, were inoculated on a plastic culture plate (diameter of 100 mm) made by Falcon Inc. and cultured in Eagle's minimum medium containing 10% bovine fetal serum.
# Three days after, cells adhered to the bottom of the plate were washed twice with Dulbecco's phosphate buffer followed by culturing in 8 ml of serum-free Eagle's medium (containing no Phenol Red) containing 200 µg/ml of a specimen of the compound of the present invention for further 3 to 4 days. […]
# To 100 µl of the concentrated sample, 50 µl of 15 mCU plasmin solution was added and further 50 µl of 0.25 µmole S-2251 synthetic chromogenic substrate solution was added thereto followed by reacting at 37°C for 10 minutes. By adding 1 ml of 2% citrate solution, the reaction was stopped. p-Nitroanilide released from the S-2251 substrate was measured at O.D. of 405 nm.
# A sample in which decomposition of the S-2251 substrate was measured using the aforesaid Tris buffer instead of the concentrated sample was made a control showing 100% plasmin activity and the concentrated sample cultured without adding a test compound was made a control showing 100% α2-PI activity. […]
row,Compound,α2-PI activity (%)
1,N-Isoprenylmoranoline [Compound No. 9],55
2,Nojirimycin bisulfite [Compound No. 6],67
